Experimental data as given in patent US11059832B2, “HPK1 inhibitors and methods of using same” (University Health Network, priority 2015, dated 2021).

Columns and labels:
human HPK1 (MAP4K1) = target: T1, human HPK1 (MAP4K1) (Homo sapiens, UniProt Q92918); assay: HPK1 inhibition assay (indirect ELISA); assay type: biochemical; conditions: GST-HPK1 0.6 nM, 12 μM ATP; read-out: IC50 Range HPK1
T1 construct: human HPK1 (aa 1-346); purchased Invitrogen PV6355
T1 sequence (Q92918 1-346): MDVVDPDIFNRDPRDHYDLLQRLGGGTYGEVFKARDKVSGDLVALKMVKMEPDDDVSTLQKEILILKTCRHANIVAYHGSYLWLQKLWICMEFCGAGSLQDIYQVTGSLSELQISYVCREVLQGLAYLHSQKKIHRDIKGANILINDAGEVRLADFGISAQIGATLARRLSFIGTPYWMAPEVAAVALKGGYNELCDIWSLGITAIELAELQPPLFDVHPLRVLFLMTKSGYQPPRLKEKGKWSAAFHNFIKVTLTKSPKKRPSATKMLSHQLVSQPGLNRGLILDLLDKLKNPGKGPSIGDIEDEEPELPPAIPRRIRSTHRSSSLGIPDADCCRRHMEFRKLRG
Method in brief: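 GST-tagged human HPK1 (aa 1-346, 0.6 nM) phosphorylated MBP-coated wells with 12 μM ATP in MOPS pH 7.2/Mg2+ buffer for 30 min after 15-min compound preincubation; phospho-Thr detected by antibody ELISA with TMB, 450 nm. Tested at 10 μM or 10-point titration (typically 50-0.1 μM); IC50 by 4-parameter logistic fit.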

[1] = test system: ERK1/2 T202/Y204 phosphorylation in α-CD3 stimulated Jurkat E6.1 cells; assay: In vitro phosphorylation assay, ERK1/2 T202/Y204 (immunoblot); assay type: cell-based; conditions: Homo sapiens, 4 h pretreatment, read-out: ERK1/2 T202/Y204 Phosphorylation Onset Inhibition
Procedure: (§1) Jurkat E6.1 cells were obtained from American Type Culture Collection (ATCC, Manassas, Va.), and maintained according to the supplier's instructions. Cells were washed three times and starved in RPMI 1640 medium supplemented with 0.5% fetal calf serum for 18 h at 37° C. Serum starved cells were pretreated with the indicated concentration of inhibitor for 4 hours before stimulation with 10 μg/ml α-CD3 antibody (BioLegend, Inc., San Diego, Calif.) for 10 min at 37° C. The cells were washed once in phosphate-buffered saline (pH 7.4) containing 10 mm sodium pyrophosphate, 10 mm sodium fluoride, 10 mm EDTA, and 1 mm sodium orthovanadate. Protein lysates were prepared using ice-cold radioimmunoprecipitation assay (RIPA) lysis buffer. A total of 100 μg of cell lysate was loaded onto Bis-Tris gels (Life Technologies, Carlsbad, Calif.) with full-range molecular weight marker as a size reference, and resolved by SDS-PAGE electrophoresis. Proteins were transferred to PVDF membrane (Millipore, Billerica, Mass.), blocked and probed with antibodies for phospho-SLP-76 (Ser376) (rabbit polyclonal #13177; Cell Signaling Technology Inc., Danvers, Mass.), SLP-76 (rabbit polyclonal #4958; Cell Signaling Technology Inc., Danvers, Mass.), phospho-ERK (mouse monoclonal sc-7383; Santa Cruz Biotechnology Inc., Santa Cruz, Calif.) and ERK1/2 (rabbit polyclonal 06-182; Millipore, Billerica, Mass.). Secondary antibodies were diluted 1 in 15,000 and incubated for 1 h at rt. Protein bands were visualized and quantified using Odyssey near infrared imager (LI-COR, Lincoln, Nebr.).
(§2) Table 2 below lists effects of representative compounds of the present invention against SLP-76 serine 376 phosphorylation and ERK1/2 T202/Y204 phosphorylation in α-CD3 stimulated Jurkat E6.1 cells.

FLT3 = target: T2, FLT3 (Homo sapiens, UniProt P36888); assay: FLT3 inhibition, FRET based Z'-LYTE Kinase Assay; assay type: biochemical; conditions: 1 nM FLT3, 940 μM ATP; read-out: IC50 Range Flt3
T2 construct: purchased Invitrogen PV3182
T2 sequence (P36888 27-993): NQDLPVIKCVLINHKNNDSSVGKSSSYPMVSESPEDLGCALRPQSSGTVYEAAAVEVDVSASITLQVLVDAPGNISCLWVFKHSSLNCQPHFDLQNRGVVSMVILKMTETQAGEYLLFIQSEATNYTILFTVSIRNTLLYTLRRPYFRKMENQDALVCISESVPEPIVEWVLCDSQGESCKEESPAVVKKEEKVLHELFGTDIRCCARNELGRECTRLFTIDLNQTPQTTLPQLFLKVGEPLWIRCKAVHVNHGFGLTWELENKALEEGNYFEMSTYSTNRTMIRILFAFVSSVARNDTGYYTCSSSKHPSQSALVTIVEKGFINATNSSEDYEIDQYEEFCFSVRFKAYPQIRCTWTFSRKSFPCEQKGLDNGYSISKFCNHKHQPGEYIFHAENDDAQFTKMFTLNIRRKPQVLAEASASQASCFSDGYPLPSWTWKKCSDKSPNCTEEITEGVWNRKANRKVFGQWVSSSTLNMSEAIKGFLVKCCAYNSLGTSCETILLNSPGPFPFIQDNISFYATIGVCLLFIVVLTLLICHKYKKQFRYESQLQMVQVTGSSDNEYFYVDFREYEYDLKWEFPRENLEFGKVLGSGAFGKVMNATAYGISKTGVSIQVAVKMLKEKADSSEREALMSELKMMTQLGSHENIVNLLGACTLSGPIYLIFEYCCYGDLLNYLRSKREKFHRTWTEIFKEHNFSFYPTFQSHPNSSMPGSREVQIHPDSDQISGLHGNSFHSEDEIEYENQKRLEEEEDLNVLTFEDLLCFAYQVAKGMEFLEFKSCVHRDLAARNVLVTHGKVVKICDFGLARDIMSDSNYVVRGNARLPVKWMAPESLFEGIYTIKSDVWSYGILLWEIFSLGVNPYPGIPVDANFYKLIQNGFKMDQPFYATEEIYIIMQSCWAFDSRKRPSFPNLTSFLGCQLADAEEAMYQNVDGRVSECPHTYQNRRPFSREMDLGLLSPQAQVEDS
Procedure: (§3) FLT3 and LCK compound inhibition were determined using FRET based Z′-LYTE Kinase Assay Kit with Tyrosine 2 peptide as the substrate (Invitrogen cat #PV3191). […] The % inhibition values were determined according to the manufacturer's directions and IC50 values were obtained using a non-linear 4 point logistic curve fit (XLfit4, IDBS).

LCK = target: T3, LCK (Homo sapiens, UniProt P06239); assay: LCK inhibition, FRET based Z'-LYTE Kinase Assay; assay type: biochemical; conditions: 25 nM LCK, 180 μM ATP; read-out: IC50 Range Lck
T3 construct: purchased Invitrogen P3043
T3 sequence (P06239 whole entry, species assumed): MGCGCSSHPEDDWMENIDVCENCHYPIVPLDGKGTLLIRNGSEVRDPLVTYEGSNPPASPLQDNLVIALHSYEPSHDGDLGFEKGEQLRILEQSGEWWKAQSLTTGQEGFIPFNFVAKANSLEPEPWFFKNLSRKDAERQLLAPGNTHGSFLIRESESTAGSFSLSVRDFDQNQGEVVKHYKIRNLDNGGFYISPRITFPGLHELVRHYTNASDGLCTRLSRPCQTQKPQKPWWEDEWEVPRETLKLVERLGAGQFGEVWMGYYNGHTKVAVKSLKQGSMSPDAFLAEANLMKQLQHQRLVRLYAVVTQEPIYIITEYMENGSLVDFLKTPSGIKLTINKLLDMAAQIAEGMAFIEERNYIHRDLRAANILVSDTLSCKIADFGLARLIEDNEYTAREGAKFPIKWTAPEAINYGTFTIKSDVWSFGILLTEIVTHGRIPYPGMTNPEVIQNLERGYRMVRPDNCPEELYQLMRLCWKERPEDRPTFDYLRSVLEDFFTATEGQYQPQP
Procedure: as §3

[2] = test system: SLP-76 serine 376 phosphorylation in α-CD3 stimulated Jurkat E6.1 cells; assay: In vitro phosphorylation assay, SLP-76 Ser376 (immunoblot); assay type: cell-based; conditions: Homo sapiens, 4 h pretreatment, substantive = >75% inhibition as estimated by immunoblot analysis, read-out: SLP76 S376 Phosphorylation Onset-Substantive* Inhibition
Procedure: as §1, §2

## CN1CCN(c2ccc3nc(-c4c(N)c5cscc5[nH]c4=O)[nH]c3c2)CC1 [Example A23, 4-amino-3-(6-(4-methylpiperazin-1-yl)-1H-benzo[d]imidazol-2-yl)thieno[3,4-b]pyridin-2(1H)-one]
Human HPK1 (MAP4K1)
  IC50: ≤ 0.05 µM
[1]
  minimal effective concentration: > 3 µM
FLT3
  IC50: ≤ 0.05 µM
LCK
  IC50: ≤ 0.05 µM
[2]
  IC75: 0.3 to 1 µM

## CN1CCN(c2ccc3nc(-c4c(N)c5sccc5[nH]c4=O)[nH]c3c2)CC1 [Example A30, 7-amino-6-(6-(4-methylpiperazin-1-yl)-1H-benzo[d]imidazol-2-yl)thieno[3,2-b]pyridin-5(4H)-one]
Human HPK1 (MAP4K1)
  IC50: ≤ 0.05 µM
[1]
  minimal effective concentration: > 3 µM
FLT3
  IC50: ≤ 0.05 µM
LCK
  IC50: ≤ 0.05 µM
[2]
  IC75: 0.3 to 1 µM

## CN1CCN(c2ccc3nc(-c4c(NC5CCCC5)c5sccc5[nH]c4=O)[nH]c3c2)CC1 [Example A34, 7-(cyclopentylamino)-6-(6-(4-methylpiperazin-1-yl)-1H-benzo[d]imidazol-2-yl)thieno[3,2-b]pyridin-5(4H)-one]
Human HPK1 (MAP4K1)
  IC50: ≤ 0.05 µM
[1]
  minimal effective concentration: 3 µM
FLT3
  IC50: ≤ 0.05 µM
LCK
  IC50: ≤ 0.05 µM
[2]
  IC75: 1 to 3 µM

## CN1CCN(c2ccc3nc(-c4c(N[C@H]5CC[C@H](O)CC5)c5sccc5[nH]c4=O)[nH]c3c2)CC1 [Example A37, 7-(((1r,4r)-4-hydroxycyclohexyl)amino)-6-(6-(4-methylpiperazin-1-yl)-1H-benzo[d]imidazol-2-yl)thieno[3,2-b]pyridin-5(4H)-one]
Human HPK1 (MAP4K1)
  IC50: ≤ 0.05 µM
[1]
  minimal effective concentration: 1 to 3 µM
FLT3
  IC50: ≤ 0.05 µM
LCK
  IC50: ≤ 0.05 µM
[2]
  IC75: 0.1 to 0.3 µM

## O=c1[nH]c2ccsc2c(NC2CCNCC2)c1-c1nc2ccc(N3CCOCC3)cc2[nH]1 [Example A43, 6-(6-morpholino-1H-benzo[d]imidazol-2-yl)-7-(piperidin-4-ylamino)thieno[3,2-b]pyridin-5(4H)-one]
Human HPK1 (MAP4K1)
  IC50: ≤ 0.05 µM
[1]
  minimal effective concentration: > 3 µM
FLT3
  IC50: ≤ 0.05 µM
LCK
  IC50: 0.05 to 0.5 µM
[2]
  IC75: 0.1 to 0.3 µM

## CN1CCN(c2ccc3nc(-c4c(N[C@H]5CCCC[C@H]5O)c5ccsc5[nH]c4=O)[nH]c3c2)CC1 [Example A57, 4-(((1S,2R)-2-hydroxy-cyclohexyl)amino)-5-(6-(4-methylpiperazin-1-yl)-1H-benzo[d]imidazol-2-yl)thieno-[2,3-b]pyridin-6(7H)-one]
Human HPK1 (MAP4K1)
  IC50: ≤ 0.05 µM
[1]
  minimal effective concentration: > 3 µM
FLT3
  IC50: ≤ 0.05 µM
LCK
  IC50: 0.05 to 0.5 µM
[2]
  IC75: 0.3 to 1 µM

## CN1CCN(c2ccc3nc(-c4c(N[C@H]5CCC[C@H]5O)c5ccsc5[nH]c4=O)[nH]c3c2)CC1 [Example A58, 4-(((1S,2R)-2-hydroxy-cyclopentyl)amino)-5-(6-(4-methylpiperazin-1-yl)-1H-benzo[d]imidazol-2-yl)-thieno[2,3-b]pyridin-6(7H)-one]
Human HPK1 (MAP4K1)
  IC50: ≤ 0.05 µM
[1]
  minimal effective concentration: > 3 µM
FLT3
  IC50: ≤ 0.05 µM
LCK
  IC50: 0.05 to 0.5 µM
[2]
  IC75: 0.1 to 0.3 µM
